# Source: patent US9789130B2, “Method for blocking HIV entry into dendritic cells by inhibiting sialoadhesin-sialyllactose binding interactions with gangliosides” (LABORATORIOS DEL DR. ESTEVE, S.A., priority 2011, dated 2017)
# Assays:
# mDCs = assay: Lactose and GM3 polar head group treatment of mDCs before LUV/VLP capture; format: cell-based, human; details: mDCs pre-incubated with 5 to 10 mM compound, relative to mock-treated mDCs
# Experimental: mDCs were preincubated with or without 5 or 10 mM of lactose (Sigma-Aldrich Co., Saint Louis, Mo., US) and soluble GM3 carbohydrate head group (Carbosynth Ltd., Compton, Berkshire, GB) for 30 min at RT. Cells were then pulsed with 50 μM of GM3-containing LUVHIv-tRed and 75 ng of sucrose-pelleted VLPHIv-Gag-eGFP Gag for 2 h at 37° C., at a final concentration of 5 or 10 mM for the compounds tested. Cells were analyzed by FACS as described previously.
# Siglec-1 [1] = target: T1, Siglec-1 (Homo sapiens, UniProt Q9BZZ2); assay: VLP capture by LPS mDCs pre-incubated with α-Siglec-1 mAbs; format: cell-based; set-up: Siglec-1 expressed in LPS mDCs capture distinct ganglioside containing vesicles; endogenous in cells; host or cells: LPS-matured monocyte-derived dendritic cells (LPS mDCs) from donor PBMCs; details: 2 μg/ml mAb 7D2 treated with at least 100-fold molar excess of human recombinant protein
# T1 sequence (Q9BZZ2 20-1709): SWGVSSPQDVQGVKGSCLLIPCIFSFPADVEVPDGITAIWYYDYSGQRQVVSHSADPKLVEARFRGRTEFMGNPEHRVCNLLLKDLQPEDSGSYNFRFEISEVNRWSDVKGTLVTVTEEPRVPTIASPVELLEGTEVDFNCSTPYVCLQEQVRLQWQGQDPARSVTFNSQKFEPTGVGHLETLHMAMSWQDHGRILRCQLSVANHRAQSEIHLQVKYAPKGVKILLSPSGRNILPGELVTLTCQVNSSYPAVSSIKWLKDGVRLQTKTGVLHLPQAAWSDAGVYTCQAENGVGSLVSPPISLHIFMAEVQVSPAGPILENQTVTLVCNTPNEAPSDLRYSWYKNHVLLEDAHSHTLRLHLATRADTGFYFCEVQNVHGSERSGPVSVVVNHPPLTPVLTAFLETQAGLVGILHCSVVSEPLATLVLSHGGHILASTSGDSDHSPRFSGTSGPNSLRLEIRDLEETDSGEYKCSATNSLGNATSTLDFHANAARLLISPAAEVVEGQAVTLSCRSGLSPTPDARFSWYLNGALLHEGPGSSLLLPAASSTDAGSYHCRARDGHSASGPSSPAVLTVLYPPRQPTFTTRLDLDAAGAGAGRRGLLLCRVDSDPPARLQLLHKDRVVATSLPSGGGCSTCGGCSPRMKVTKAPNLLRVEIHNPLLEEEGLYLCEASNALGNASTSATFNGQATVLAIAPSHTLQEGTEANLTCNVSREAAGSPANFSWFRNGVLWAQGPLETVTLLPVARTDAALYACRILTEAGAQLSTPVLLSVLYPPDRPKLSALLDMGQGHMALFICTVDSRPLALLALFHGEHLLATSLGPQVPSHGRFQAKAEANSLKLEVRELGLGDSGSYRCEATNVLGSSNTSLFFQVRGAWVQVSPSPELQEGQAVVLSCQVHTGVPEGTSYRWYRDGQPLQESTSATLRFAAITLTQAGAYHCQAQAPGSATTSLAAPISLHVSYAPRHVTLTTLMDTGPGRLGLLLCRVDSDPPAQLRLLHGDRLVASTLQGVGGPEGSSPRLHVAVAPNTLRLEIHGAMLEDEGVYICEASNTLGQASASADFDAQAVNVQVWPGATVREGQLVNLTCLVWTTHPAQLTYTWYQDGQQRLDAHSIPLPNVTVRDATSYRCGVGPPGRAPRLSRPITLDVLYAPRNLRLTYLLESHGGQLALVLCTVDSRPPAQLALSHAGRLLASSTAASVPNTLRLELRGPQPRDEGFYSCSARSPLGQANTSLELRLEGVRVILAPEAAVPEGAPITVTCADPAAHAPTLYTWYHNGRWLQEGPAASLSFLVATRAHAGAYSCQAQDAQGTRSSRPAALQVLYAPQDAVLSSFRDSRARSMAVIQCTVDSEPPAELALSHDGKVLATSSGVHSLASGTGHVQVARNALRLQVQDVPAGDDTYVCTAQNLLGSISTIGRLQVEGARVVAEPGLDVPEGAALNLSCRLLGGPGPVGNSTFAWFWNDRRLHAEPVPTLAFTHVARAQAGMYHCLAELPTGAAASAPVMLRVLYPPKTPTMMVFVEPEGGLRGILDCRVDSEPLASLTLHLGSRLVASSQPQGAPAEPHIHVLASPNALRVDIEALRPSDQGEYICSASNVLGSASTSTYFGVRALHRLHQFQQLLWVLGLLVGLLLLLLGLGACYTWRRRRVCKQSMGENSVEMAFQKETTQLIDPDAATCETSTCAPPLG
# Experimental: FIG. 11. Siglec-1 expressed in LPS mDCs capture distinct ganglioside containing vesicles, such as HIV-1 viral-like particles, liposomes, and exosomes. Capture of VLPHIV-Gag-eGFP by LPS mDCs that had been pre-incubated with decreasing concentrations of α-Siglec-1 mAb 7D2 before VLP exposure for 30 min at 37° C.
# FIG. 12. Capture of VLPHIV-Gag-eGFP by LPS mDCs that had been pre-incubated with or without 2 μg/ml of α-Siglec-1 mAb 7D2 previously treated or not with at least a 100-fold molar excess of the indicated human recombinant proteins. Of note, Siglec-14 shares 100% of amino acid homology with Siglec-5 in the V-set domain.
# FIG. 13. Blocking effect of α-Siglec-1 mAb 7-239. (A) Capture of VLPHIV-Gag-eGFP by LPS mDCs that had been pre-incubated with decreasing concentrations of α-Siglec-1 mAb 7-239 before VLP exposure for 30 min at 37° C. […] (B) Capture of VLPHIV-Gag-eGFP by LPS mDCs that had been pre-incubated with 10 μg/ml of the indicated mAbs before VLP exposure for 3 h at 37° C.
# Siglec-1 [2] = target: T1, Siglec-1; assay: VLP capture by Siglec-1 transfected Raji B cells; format: cell-based; details: mAbs 10 μg/ml; sialyllactose at indicated concentrations, 30 min prior to VLP pulse
# Experimental: Raji cells (2×10^6) were transfected with vector backbone pCMV6-Entry (Origene) comprising the coding region of Siglec-1, Siglec-5, or Siglec-7 using Amaxa nucleofector as recommended by the manufacturer. At 36 h posttransfection, cells were assessed for VLP capture and HIV-1 trans-infection (at a ratio 2:1) as described above. When indicated, cells were pre-incubated with decreasing concentrations of 3′-Sialyllactose (Carbosynth) or Lactose (Sigma-Aldrich) 30 min prior to VLP pulse. In experiments with envelope-deficient viruses, 5×10^5 cells were pulsed with 100 ng of p24^Gag estimated by ELISA for 4 h at 37° C. and assessed for capture and trans-infection (at a ratio 2:1) as aforementioned. HEK-293T cells were transfected using Fugene HD (Promega) and assessed 24 h posttransfection as described for Raji cells. Trans-infection of HEK-293T was tested in a different luminometer (Luminoskan Ascent, Thermo Labsystems), and collected data were normalized to 100%. Transfection efficiency in both cell types was assessed staining cells with anti-Siglec-1-PE 7-239 mAb, anti-Siglec-7-PE 5-386 mAb (AbD Serotec), and anti-Siglec-5/14-PE 1A5 mAb (Biolegend) and evaluated by FACS. Stable Raji DC-SIGN cells were labeled with anti-DC-SIGN-PE DCN46 mAb (BD Pharmigen).
compound,measurement,setting,value
CC(=O)N[C@H]1[C@H]([C@H](O)[C@H](O)CO)O[C@@](O[C@H]2[C@@H](O)[C@@H](CO)O[C@@H](O[C@H]3[C@H](O)[C@@H](O)C(O)O[C@@H]3CO)[C@@H]2O)(C(=O)O)C[C@@H]1O (stereo partly drawn) [soluble GM3],capture of GM3-containing LUVHIV-tRed by mDCs in the presence of soluble carbohydrate,mDCs,completely blocked
same,capture of VLPHIV-Gag-eGFP by mDCs in the presence of soluble carbohydrate,mDCs,completely blocked
same,capture of GM3-containing LUVHIV-tRed by mDCs in the presence of soluble carbohydrate,mDCs; listed as GM3 polar head group,captured less particles
same,capture of VLPHIV-Gag-eGFP by mDCs in the presence of soluble carbohydrate,mDCs; listed as GM3 polar head group,captured less particles
purified Siglec-1: human recombinant Siglec-1 protein used to pre-treat mAb 7D2,VLP capture by LPS mDCs with mAb 7D2 pre-incubated with purified protein,Siglec-1 [1],completely restored VLP capture
"CC(=O)N[C@H]1[C@H]([C@H](O)[C@H](O)CO)O[C@@](O[C@H]2[C@@H](O)[C@@H](CO)O[C@@H](O[C@H]3[C@H](O)[C@@H](O)C(O)O[C@@H]3CO)[C@@H]2O)(C(=O)O)C[C@@H]1O (stereo partly drawn) [sialyllactose, 3′-Sialyllactose]",VLPHIV-Gag-eGFP capture by Siglec-1 transfected Raji cells after pre-incubation with inhibitor,Siglec-1 [2],blocked VLP capture
